Source: US20230139944A1, “TARGETING ALPHA3BETA1 INTEGRIN FOR TREATMENT OF CANCER AND OTHER DISEASES” (Board of Regents, The University of Texas System, priority 2019, published 2023)

Assays:
[1] = system: KPPC mice (ADM and PanIN lesions); assay: FAK inhibitor (FAKi) treatment in vivo, H&E-stained pancreas sections; design: species or system mouse; settings: oral gavage 50 mg/kg twice per day for 7 days
Procedure: (§1) FIGS. 2A-2H. Type I collagen homotrimers induce persistent proliferation signals via integrins. (A,B) KPPC; Col1^pdxKO cancer cells were transfected with siRNAs of integrins β1 (A), α1, α2, or α3 (B). Cells were then incubated with DMEM medium with 1% FBS for 6 hours before the treatment with col1 homotrimers or heterotrimers (50 μg/mL) for 16 hours. Cells were harvested, lysed, and examined by Western blotting. (C) Expression levels of selected integrin subunits in KPPC; Col1^pdxKO cancer cells. (D) Expression levels of selected integrin subunits human PDAC cell lines (Panc1, BxPC3, MiaPaca2, PSN1, HPAC, CAPAN1) based on RNA-seq data from the Broad Institute Cancer Cell Line Encyclopedia (CCLE) database. RMA (Robust Multi-array Average algorithm) normalization was used and data are the log 2 gene expression signal. (E) Expression profile of integrin α3 (Itga3) among various cell clusters from KPPC tumors, as shown in t-SNE plot using the single cell RNA sequencing analysis. (F) Representative images of integrin α3 IHC staining on KPPC tumor sections. Scale bar: 100 μm. (G) KPPC; Col1^pdxKO cancer cells growing in 6-well plates were cultured with regular medium (DMEM with 10% FBS) to reach 60% confluence. […] Percent area of ADM and PanIN lesions was quantified. * P<0.05. […]

[2] = system: FAK and PYK2; assay: Col1 homotrimer-induced signaling with FAK inhibitor, Western blotting; format: cell-based, mouse; settings: VS-4718 1 μM, 16 hours, KPPC; Col1^pdxKO cancer cells, col1 homotrimers 50 μg/mL
[3] = system: activation of FAK, AKT, and ERK in KPPC; Col1^pdxKO cancer cells; assay: Col1 homotrimer-induced pro-survival signaling examined by Western blotting; format: cell-based, mouse; settings: VS-4718 1 μM, 16 hours, col1 homotrimers 50 μg/mL
Procedure: FIGS. 1A-1D. Type I collagen homotrimers induce pro-survival signaling through α3β1 integrin. KPPC; Col1^pdxKO cancer cells were transfected with siRNAs of DDR1 (A,B), integrin β1 (C), or integrin α3 (D). Cells were then incubated with DMEM medium with 1% FBS for 6 hours before the treatment with col1 homotrimers or heterotrimers (50 μg/mL) for 16 hours. Cells were harvested, lysed, and examined for indicated proteins by Western blotting.
as §1, with “signal.” for “signal. (E) Expression profile of integrin α3 (Itga3) among various cell clusters from KPPC tumors, as shown in t-SNE plot using the single cell RNA sequencing analysis. (F) Representative images of integrin α3 IHC staining on KPPC tumor sections. Scale bar: 100 μm. (G) KPPC; Col1^pdxKO cancer cells growing in 6-well plates were cultured with regular medium (DMEM with 10% FBS) to reach 60% confluence.”

SMILES: CNC(=O)c1ccccc1Nc1cc(Nc2ccc(N3CCOCC3)cc2OC)ncc1C(F)(F)F [VS-4718]
- early PanIN progression (percent area of ADM and PanIN lesions) [1]: inhibited early PanIN progression
- inhibition of FAK and PYK2 [2]: inhibited FAK and PYK2
- col1 homotrimer induced activation of FAK, AKT, and ERK [3]: abrogated
